These results are taken from patent US20080269306A1, “Antidepressant Medicament Comprising Idazoxan and a Selective Serotonin Reuptake Inhibitor” (ALPHA 2 PHARMACEUTICA AB, priority 2004, published 2008).

For assay [1], the system named is noradrenaline output in the medial prefrontal cortex. The assay can be described thus: Microdialysis: noradrenaline output in the medial prefrontal cortex of freely moving rats. Format: in vivo, rat. As to conditions: for NORADRENALINE Medial Prefrontal Cortex, mean values: n = 5; for effect on noradrenaline output in the medial prefrontal cortex: citalopram alone, or low dose of Idazoxan added to citalopram. The procedure:
(§1) Adult male BK1:WR (Wistar) rats weighing 230-390 g were used in all experiments. Animals arrived at least five days prior to experimental use and were housed (4 per cage [Makrolon IV]) in the animal facility under standard laboratory conditions with a 12 h light/dark cycle with lights on at 6.00 a.m. All experiments were performed between 8.00 a.m. and 6.00 p.m. Food and water were available ad lib. All experiments were approved by, and conducted in accordance with, the local Animal Ethics Committee (Stockholms Norra och Södra Försöksdjursetiska Kommittéer) (permits no. N216/00, N11/00). The probe implantation and dialysis procedure, as well as the biochemical analyses, were similar to those previously described (Hertel et al 1996, […] et al 1999). Anesthetized male BKI:WR (Wistar) rats (B&K Universal, Sollentuna, Sweden; sodium pentobarbital, 60 mg/kg, intraperitoneal; i.p.) were implanted with dialysis probes in the medial prefrontal cortex (mPFC) [AP: +2.6; ML: -0.6; DV: -5.2], relative to bregma and dural surface (Paxinos and Watson 1998). Dialysis occurred through a semipermeable membrane (AN69 Hospal) with an active surface length of 4 mm. Dialysis experiments were conducted approximately 48 h after surgery in freely moving rats. The dialysis probe was perfused with a physiological perfusion solution (147 mM sodium chloride, 3.0 mM potassium chloride, 1.3 mM calcium chloride, 1.0 mM magnesium chloride, and 1.0 mM sodium phosphate, pH 7.4) at a rate of 2.5 μl/min set by a microinfusion pump (Harvard Apparatus, Holliston, Mass.). On-line quantification of noradrenaline (NA) or dopamine (DA) in the dialysate was accomplished by high pressure liquid chromatography coupled to electrochemical detection. The placement of the probe was later verified in slices stained with neutral red. 2-Way Anova (treatment×time) followed by Neuman-Keuls Post Hoc comparison test.

The subject of assay [2] is dopamine output in the medial prefrontal cortex. The assay can be described thus: Microdialysis: dopamine output in the medial prefrontal cortex of freely moving rats. Format: in vivo, rat. As to conditions: for DOPAMINE Medial Prefrontal Cortex, mean values: n = 5; for effect on dopamine output in the medial prefrontal cortex: citalopram alone, or low dose of Idazoxan added to citalopram. The procedure:
as §1

Setting [3] is: TIME 30 min, after citalopram 5 mg/kg s.c., before saline/idazoxan.
Setting [4] is: TIME 60 min, after citalopram 5 mg/kg s.c., before saline/idazoxan.
Setting [5] is: TIME 90 min, after citalopram 5 mg/kg s.c., before saline/idazoxan.
The mark [6] stands for this setting: TIME 120 min, citalopram 5 mg/kg s.c., then saline 1 ml/kg or idazoxan 1.5 mg/kg s.c. after the 90 min sample.
[7] abbreviates: TIME 150 min, citalopram 5 mg/kg s.c., then saline 1 ml/kg or idazoxan 1.5 mg/kg s.c. after the 90 min sample.
Where [8] appears, read: TIME 180 min, citalopram 5 mg/kg s.c., then saline 1 ml/kg or idazoxan 1.5 mg/kg s.c. after the 90 min sample.
Setting [9] is: TIME 210 min, citalopram 5 mg/kg s.c., then saline 1 ml/kg or idazoxan 1.5 mg/kg s.c. after the 90 min sample.
Where [10] appears, read: TIME 240 min, citalopram 5 mg/kg s.c., then saline 1 ml/kg or idazoxan 1.5 mg/kg s.c. after the 90 min sample.
The mark [11] stands for this setting: TIME 270 min, citalopram 5 mg/kg s.c., then saline 1 ml/kg or idazoxan 1.5 mg/kg s.c. after the 90 min sample.
Setting [12] is: awake freely moving rat, low dose of Idazoxan added to citalopram.

As for `CN(C)CCCC1(c2ccc(F)cc2)OCc2cc(C#N)ccc21` (stereo not drawn) [Citalopram + Saline, Citalopram], the “NORADRENALINE Medial Prefrontal Cortex, mean values” is given as 127.8 % Baseline in assay [1] (setting [3]); 118.8 % Baseline in assay [1] (setting [4]); 105.5 % Baseline in assay [1] (setting [5]); 114.6 % Baseline in assay [1] (setting [6]); 103.2 % Baseline in assay [1] (setting [7]); 81.6 % Baseline in assay [1] (setting [8]). Besides, the “NORADRENALINE Medial Prefrontal Cortex, mean values” in assay [1] (setting [9]) stood at 88.7 % Baseline; in assay [1] (setting [10]), 83.7 % Baseline; in assay [1] (setting [11]), 87.9 % Baseline. The “effect on noradrenaline output in the medial prefrontal cortex” value in assay [1] (awake freely moving rat) is on record as “does not per se affect”. The “DOPAMINE Medial Prefrontal Cortex, mean values” amounted to 129.4 % Baseline in assay [2] (setting [3]); 104.5 % Baseline in assay [2] (setting [4]); 109.1 % Baseline in assay [2] (setting [5]); 127.8 % Baseline in assay [2] (setting [6]); 110.3 % Baseline in assay [2] (setting [7]); 97.7 % Baseline in assay [2] (setting [8]). Further, the results for the “DOPAMINE Medial Prefrontal Cortex, mean values” in assay [2] (setting [9]), in assay [2] (setting [10]) and in assay [2] (setting [11]) were 88.0 % Baseline, 104.5 % Baseline and 94.1 % Baseline, respectively. The “effect on dopamine output in the medial prefrontal cortex” value in assay [2] (awake freely moving rat) is given as “does not per se affect”.
For `c1ccc2c(c1)OCC(C1=NCCN1)O2` (racemic) [Idazoxan, 2-(1,4-benzodioxan-2-yl)-2-imidazoline], in assay [1] (awake freely moving rat), the “effect on noradrenaline output in the medial prefrontal cortex” value is given as “significant increase”. In assay [1] (setting [12]), the “duration of the increase in noradrenaline output” value was “approximately 2 hours”. Besides, the “effect on dopamine output in the medial prefrontal cortex” value in assay [2] (awake freely moving rat) was “significant increase”. Further, in assay [2] (setting [12]), the “duration of the increase in dopamine output” value is listed as “approximately 2 hours”.
